ChEMBL document CHEMBL4507291 (2021)

Tests used:
[1] = biological target: Receptor tyrosine-protein kinase erbB-2 (Homo sapiens) (UniProt P04626)
[2] = biological target: T1, Aurora kinase C (Homo sapiens) (UniProt Q9UQB9)
T1 sequence (whole entry): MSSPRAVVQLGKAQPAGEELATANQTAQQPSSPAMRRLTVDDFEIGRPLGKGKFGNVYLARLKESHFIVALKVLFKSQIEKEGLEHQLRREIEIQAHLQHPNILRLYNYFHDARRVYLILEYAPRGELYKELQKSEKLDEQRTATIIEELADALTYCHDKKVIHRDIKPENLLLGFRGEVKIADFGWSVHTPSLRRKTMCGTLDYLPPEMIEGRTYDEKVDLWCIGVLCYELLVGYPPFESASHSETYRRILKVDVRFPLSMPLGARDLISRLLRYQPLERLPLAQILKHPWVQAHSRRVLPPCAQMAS

[3] = biological target: T2, Serine/threonine-protein kinase DCLK2 (Homo sapiens) (UniProt Q8N568)
T2 sequence (whole entry): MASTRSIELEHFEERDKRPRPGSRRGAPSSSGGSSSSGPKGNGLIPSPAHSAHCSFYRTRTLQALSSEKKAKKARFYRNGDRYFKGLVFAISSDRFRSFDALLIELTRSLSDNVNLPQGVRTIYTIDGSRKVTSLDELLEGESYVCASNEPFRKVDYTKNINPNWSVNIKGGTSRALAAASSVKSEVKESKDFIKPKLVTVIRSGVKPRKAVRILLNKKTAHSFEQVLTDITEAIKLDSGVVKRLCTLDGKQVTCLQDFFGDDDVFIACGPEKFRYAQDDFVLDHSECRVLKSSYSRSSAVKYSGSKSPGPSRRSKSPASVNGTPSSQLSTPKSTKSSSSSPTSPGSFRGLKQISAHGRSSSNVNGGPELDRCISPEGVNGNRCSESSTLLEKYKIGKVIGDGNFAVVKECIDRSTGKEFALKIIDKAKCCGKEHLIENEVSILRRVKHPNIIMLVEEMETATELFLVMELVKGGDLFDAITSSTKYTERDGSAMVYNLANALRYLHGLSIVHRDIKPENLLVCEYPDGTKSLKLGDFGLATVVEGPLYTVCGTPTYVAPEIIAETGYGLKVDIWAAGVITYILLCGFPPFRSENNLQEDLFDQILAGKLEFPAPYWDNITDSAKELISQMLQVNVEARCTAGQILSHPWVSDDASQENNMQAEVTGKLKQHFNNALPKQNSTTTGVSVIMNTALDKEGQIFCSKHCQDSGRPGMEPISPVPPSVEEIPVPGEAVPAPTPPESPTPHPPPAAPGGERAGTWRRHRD

[4] = biological target: Cyclin-dependent kinase 14 (Homo sapiens) (UniProt O94921)
[5] = biological target: Macrophage colony-stimulating factor 1 receptor (Homo sapiens) (UniProt P07333)
[6] = tested on: Receptor-type tyrosine-protein kinase FLT3 (Homo sapiens), P36888 [K663Q]
[7] = tested on: Epidermal growth factor receptor (Homo sapiens), P00533 [UNDEFINED MUTATION]
Chain of Epidermal growth factor receptor (Homo sapiens), P00533 [UNDEFINED MUTATION] (P00533 whole entry, looked up, change not shown): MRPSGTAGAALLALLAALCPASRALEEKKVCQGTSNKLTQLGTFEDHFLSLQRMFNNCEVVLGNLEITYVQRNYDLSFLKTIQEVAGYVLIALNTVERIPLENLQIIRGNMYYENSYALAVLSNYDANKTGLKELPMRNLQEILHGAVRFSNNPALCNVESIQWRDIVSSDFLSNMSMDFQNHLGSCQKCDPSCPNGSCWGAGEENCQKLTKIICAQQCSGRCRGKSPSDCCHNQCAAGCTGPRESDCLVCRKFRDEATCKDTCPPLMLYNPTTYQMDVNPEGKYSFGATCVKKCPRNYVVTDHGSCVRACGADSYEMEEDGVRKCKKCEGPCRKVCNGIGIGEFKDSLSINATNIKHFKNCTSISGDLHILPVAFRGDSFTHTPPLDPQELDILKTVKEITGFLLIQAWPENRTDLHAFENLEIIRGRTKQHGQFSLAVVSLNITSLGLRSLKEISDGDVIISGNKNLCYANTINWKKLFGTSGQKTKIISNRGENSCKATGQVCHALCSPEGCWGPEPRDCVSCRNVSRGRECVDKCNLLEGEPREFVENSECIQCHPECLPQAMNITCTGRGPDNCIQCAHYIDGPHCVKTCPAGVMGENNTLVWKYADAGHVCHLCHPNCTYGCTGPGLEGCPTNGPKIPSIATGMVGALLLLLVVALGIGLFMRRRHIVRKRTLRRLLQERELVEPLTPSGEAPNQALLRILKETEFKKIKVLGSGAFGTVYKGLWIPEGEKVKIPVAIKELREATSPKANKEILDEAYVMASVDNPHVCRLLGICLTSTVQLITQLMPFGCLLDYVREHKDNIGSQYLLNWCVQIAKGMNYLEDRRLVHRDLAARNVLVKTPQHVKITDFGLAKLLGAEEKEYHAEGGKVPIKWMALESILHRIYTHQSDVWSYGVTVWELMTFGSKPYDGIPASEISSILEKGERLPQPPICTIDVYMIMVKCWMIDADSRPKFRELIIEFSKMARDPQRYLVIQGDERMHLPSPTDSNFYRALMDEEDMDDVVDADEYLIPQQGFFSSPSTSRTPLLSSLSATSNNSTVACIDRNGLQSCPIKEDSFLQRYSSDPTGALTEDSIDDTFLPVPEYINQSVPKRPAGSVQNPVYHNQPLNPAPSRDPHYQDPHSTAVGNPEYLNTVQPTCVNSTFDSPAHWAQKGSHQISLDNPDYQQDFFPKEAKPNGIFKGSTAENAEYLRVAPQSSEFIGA

[8] = biological target: Vascular endothelial growth factor receptor 2 (Homo sapiens) (UniProt P35968)
Chain of Vascular endothelial growth factor receptor 2 (Homo sapiens) (P35968 whole entry): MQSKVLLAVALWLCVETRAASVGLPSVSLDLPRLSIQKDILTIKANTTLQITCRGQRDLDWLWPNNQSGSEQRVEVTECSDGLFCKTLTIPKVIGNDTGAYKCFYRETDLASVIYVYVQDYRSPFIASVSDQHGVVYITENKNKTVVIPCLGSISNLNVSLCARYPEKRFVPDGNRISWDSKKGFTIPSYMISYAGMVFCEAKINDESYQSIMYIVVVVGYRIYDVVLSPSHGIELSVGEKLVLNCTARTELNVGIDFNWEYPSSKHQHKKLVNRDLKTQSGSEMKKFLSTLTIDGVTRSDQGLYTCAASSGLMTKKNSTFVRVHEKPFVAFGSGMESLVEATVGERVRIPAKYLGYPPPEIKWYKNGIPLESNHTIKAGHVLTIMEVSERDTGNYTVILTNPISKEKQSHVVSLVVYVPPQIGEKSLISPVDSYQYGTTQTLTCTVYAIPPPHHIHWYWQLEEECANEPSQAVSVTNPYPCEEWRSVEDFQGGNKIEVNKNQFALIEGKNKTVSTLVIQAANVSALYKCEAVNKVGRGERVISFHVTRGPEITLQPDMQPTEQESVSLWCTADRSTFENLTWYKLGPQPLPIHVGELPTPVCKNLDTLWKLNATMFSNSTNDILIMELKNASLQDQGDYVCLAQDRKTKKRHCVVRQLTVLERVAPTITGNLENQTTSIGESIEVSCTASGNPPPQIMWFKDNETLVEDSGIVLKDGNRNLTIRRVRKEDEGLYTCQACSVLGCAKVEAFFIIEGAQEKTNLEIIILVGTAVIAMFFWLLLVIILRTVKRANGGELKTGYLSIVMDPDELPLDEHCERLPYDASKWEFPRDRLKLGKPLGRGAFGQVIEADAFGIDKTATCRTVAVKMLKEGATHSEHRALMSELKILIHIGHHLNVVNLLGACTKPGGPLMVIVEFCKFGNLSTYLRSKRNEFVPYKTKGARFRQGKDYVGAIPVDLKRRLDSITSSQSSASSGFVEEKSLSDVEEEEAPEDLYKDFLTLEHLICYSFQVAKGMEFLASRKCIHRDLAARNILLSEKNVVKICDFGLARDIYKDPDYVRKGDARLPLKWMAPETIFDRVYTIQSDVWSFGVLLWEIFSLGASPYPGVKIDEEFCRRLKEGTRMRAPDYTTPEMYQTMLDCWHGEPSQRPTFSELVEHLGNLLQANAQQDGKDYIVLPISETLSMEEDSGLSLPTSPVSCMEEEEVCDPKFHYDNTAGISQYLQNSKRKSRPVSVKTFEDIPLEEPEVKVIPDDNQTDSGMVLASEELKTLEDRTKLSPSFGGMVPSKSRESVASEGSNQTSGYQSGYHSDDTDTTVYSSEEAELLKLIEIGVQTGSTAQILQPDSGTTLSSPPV

[9] = biological target: Receptor tyrosine-protein kinase erbB-3 (Homo sapiens) (UniProt P21860)
[10] = biological target: Ephrin type-B receptor 6 (Homo sapiens) (UniProt O15197)
[11] = biological target: Serine/threonine-protein kinase 17B (Homo sapiens) (UniProt O94768)
Chain of Serine/threonine-protein kinase 17B (Homo sapiens) (O94768 whole entry): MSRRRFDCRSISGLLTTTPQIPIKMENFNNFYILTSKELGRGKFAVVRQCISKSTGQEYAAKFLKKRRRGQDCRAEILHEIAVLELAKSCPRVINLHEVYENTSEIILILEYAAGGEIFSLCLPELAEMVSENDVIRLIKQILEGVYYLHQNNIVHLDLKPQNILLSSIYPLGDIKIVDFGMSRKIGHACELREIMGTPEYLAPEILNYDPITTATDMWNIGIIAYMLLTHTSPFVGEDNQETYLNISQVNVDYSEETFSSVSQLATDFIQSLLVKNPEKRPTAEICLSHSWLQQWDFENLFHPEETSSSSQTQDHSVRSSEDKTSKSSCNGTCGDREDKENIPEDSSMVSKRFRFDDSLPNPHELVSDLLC

[12] = biological target: Calcium-dependent protein kinase 1 (Plasmodium falciparum) (UniProt P62344)
Chain of Calcium-dependent protein kinase 1 (Plasmodium falciparum) (P62344 2-524 limits assumed): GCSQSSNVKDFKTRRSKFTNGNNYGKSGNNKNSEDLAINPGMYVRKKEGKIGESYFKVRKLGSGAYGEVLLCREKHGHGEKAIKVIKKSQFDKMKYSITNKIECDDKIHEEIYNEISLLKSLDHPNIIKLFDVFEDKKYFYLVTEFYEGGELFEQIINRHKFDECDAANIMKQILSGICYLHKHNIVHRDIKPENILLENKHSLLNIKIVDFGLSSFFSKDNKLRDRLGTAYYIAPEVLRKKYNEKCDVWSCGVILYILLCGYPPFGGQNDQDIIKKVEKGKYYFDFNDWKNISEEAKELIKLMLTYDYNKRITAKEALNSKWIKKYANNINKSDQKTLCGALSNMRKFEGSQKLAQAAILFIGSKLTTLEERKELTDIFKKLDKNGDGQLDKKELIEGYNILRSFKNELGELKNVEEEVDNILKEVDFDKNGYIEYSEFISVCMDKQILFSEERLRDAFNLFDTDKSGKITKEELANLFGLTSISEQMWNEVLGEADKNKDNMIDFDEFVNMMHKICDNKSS

[13] = tested on: Tyrosine-protein kinase ABL1 (Homo sapiens), P00519 [H396P]
[14] = biological target: T3, Ephrin type-B receptor 3 (Homo sapiens) (UniProt P54753)
T3 sequence (whole entry): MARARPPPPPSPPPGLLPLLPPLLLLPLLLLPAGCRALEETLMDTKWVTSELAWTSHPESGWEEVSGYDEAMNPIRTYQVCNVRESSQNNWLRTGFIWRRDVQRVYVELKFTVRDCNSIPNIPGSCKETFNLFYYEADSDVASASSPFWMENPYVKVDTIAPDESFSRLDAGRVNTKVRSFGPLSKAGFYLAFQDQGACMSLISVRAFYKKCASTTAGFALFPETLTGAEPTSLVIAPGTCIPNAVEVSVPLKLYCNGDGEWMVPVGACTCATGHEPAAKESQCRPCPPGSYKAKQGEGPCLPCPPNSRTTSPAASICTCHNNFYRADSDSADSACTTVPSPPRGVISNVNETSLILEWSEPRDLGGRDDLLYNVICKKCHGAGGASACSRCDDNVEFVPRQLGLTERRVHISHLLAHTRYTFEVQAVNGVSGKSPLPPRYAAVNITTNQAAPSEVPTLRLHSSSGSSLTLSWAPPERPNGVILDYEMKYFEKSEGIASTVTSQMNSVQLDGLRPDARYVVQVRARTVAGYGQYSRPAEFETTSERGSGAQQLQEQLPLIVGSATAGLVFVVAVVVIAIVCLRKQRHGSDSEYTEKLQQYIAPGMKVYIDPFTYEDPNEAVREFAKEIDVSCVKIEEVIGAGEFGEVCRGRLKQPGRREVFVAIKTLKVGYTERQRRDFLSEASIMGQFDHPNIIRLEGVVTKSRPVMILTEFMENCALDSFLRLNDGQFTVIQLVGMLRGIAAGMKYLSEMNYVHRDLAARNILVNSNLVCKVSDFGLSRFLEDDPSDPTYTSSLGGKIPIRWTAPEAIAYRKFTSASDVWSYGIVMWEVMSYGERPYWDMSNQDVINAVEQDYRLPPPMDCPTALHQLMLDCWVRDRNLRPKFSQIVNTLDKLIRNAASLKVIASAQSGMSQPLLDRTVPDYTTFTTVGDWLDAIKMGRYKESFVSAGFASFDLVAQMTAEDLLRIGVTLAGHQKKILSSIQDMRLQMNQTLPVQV

[15] = biological target: Casein kinase I isoform alpha (Homo sapiens) (UniProt P48729)
Chain of Casein kinase I isoform alpha (Homo sapiens) (P48729 2-337 limits assumed): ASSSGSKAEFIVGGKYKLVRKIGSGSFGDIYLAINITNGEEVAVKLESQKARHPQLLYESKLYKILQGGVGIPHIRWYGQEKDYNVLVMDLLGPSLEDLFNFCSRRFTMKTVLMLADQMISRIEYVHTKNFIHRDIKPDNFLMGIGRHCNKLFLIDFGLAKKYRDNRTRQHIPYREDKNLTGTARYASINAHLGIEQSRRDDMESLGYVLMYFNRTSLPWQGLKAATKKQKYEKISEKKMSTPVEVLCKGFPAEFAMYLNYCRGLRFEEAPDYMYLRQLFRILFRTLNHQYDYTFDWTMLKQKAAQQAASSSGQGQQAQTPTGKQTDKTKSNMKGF

[16] = biological target: Mast/stem cell growth factor receptor Kit (Homo sapiens) (UniProt P10721)
[17] = biological target: STE20-like serine/threonine-protein kinase (Homo sapiens) (UniProt Q9H2G2)
Chain of STE20-like serine/threonine-protein kinase (Homo sapiens) (Q9H2G2 whole entry, looked up): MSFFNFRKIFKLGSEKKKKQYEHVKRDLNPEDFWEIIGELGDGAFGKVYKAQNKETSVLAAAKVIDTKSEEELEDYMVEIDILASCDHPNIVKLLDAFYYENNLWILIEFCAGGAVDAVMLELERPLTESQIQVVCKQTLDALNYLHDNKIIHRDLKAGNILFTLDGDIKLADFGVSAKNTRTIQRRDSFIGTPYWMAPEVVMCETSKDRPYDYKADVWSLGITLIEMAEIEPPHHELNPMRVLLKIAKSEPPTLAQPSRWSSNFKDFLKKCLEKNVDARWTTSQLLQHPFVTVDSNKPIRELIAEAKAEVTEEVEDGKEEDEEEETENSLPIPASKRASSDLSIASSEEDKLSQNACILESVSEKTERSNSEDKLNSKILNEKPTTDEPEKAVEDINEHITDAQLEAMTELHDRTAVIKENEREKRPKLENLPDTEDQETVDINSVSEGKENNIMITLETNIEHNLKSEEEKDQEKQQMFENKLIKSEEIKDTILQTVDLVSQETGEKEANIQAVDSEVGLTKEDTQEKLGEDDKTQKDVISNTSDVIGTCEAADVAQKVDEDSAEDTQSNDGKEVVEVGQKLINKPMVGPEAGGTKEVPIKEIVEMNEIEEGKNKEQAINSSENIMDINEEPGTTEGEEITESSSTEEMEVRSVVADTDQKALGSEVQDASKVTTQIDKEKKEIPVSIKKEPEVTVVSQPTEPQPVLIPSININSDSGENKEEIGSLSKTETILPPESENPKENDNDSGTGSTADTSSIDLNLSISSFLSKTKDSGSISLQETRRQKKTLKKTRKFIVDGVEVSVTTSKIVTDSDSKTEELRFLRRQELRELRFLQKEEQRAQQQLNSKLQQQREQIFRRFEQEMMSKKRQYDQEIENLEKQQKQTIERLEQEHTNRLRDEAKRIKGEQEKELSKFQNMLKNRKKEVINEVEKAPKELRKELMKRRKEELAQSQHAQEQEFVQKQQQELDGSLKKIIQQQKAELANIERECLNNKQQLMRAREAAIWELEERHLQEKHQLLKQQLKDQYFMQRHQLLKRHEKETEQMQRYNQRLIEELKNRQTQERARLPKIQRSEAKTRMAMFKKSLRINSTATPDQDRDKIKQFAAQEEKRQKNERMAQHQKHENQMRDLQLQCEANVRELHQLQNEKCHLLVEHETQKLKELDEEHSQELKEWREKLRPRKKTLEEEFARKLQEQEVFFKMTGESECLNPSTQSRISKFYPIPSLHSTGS

[18] = Compound concentration 100.0 nM
[19] = Compound concentration 1000.0 nM

Measured: residual activity

C[C@@H]1CN(c2cc(-c3n[nH]c4ccc(OC5(C)CC5)cc34)ncn2)C[C@H](C)O1 [MLi-2]
inactive: [1]; [18] 77% | [2]; [18] 100% | [3]; [18] 89% | [4]; [18] 100% | [5]; [18] 84% | [6]; [18] 100% | [7]; [18] 69% | [8]; [18] 82% | [9]; [18] 100% | [10]; [18] 91% | [11]; [18] 96% | [12]; [18] 94% | [13]; [18] 71% | [14]; [18] 98% | [15]; [18] 73% | [16]; [18] 70% | [17]; [18] 98%

C[C@@H]1CN(c2cc(-c3nn(C)c4ccc(OC5(C)CC5)cc34)ncn2)C[C@H](C)O1 [MLi-2-NC]
inactive: [1]; [19] 80% | [2]; [19] 100% | [3]; [19] 100% | [4]; [19] 100% | [5]; [19] 55% | [6]; [19] 100% | [7]; [19] 92% | [8]; [19] 75% | [9]; [19] 57% | [10]; [19] 100% | [11]; [19] 100% | [12]; [19] 83% | [13]; [19] 70% | [14]; [19] 100% | [15]; [19] 100% | [16]; [19] 97% | [17]; [19] 100%
